According to ChEMBL document CHEMBL1143550, “A structural screening approach to ketoamide-based inhibitors of cathepsin K” (Bioorg Med Chem Lett, 2005):
pIC50: −log10 of the molar value. In brackets after ≈: the same amount, converted by molar mass.

Assays:
[1] = Total clearance after intravenous administration of […] mg/kg in rats was determined; format: ADME, organism-based; conditions: rat, in vivo, 2.5 mg/kg, read-out: C1
Cathepsin K = target: T1, Cathepsin K (Homo sapiens, UniProt P43235); test: Inhibitory concentration against human cathepsin K
T1 sequence (P43235 whole entry): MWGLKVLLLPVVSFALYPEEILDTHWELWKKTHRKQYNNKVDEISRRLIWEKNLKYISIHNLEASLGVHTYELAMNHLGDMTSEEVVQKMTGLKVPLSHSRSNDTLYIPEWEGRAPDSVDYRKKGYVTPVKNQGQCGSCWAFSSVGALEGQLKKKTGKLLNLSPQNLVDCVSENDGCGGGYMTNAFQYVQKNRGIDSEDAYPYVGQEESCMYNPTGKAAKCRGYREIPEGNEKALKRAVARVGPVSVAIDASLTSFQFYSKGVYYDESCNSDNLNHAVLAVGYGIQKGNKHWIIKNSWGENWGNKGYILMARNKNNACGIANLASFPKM

Cathepsin B = Cathepsin B (Homo sapiens, UniProt P07858); test: Inhibitory concentration against human cathepsin B by fluorescence assay using 10 uM Cbz-Phe-Arg-AMC
Procathepsin L = Procathepsin L (Homo sapiens, UniProt P07711); test: Inhibitory concentration against human cathepsin L by fluorescence assay using 5 uM Cbz-Phe-Arg-AMC
Cathepsin L2 = target: T2, Cathepsin L2 (Homo sapiens, UniProt O60911); test: Inhibitory concentration against human cathepsin V by fluorescence assay using 2 uM Cbz-Phe-Arg-AMC
T2 sequence (O60911 whole entry): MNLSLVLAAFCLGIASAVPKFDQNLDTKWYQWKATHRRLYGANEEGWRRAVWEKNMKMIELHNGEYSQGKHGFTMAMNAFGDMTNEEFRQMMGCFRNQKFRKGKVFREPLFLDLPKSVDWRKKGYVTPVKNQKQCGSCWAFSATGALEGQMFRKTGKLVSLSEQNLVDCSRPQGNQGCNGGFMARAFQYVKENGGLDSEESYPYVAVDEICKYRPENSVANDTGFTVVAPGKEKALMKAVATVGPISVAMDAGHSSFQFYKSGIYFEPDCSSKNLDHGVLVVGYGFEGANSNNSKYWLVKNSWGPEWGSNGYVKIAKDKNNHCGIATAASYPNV

Cathepsin S = Cathepsin S (Homo sapiens, UniProt P25774); test: Inhibitory concentration against human cathepsin S by fluorescence assay using 10 uM Cbz-Val-Val-Arg-AMC
Pro-cathepsin H = target: T3, Pro-cathepsin H (Homo sapiens, UniProt P09668); test: Inhibitory concentration against human cathepsin H by fluorescence assay using 50 uM L-Arg-b-naphthalamide
T3 sequence (P09668 whole entry): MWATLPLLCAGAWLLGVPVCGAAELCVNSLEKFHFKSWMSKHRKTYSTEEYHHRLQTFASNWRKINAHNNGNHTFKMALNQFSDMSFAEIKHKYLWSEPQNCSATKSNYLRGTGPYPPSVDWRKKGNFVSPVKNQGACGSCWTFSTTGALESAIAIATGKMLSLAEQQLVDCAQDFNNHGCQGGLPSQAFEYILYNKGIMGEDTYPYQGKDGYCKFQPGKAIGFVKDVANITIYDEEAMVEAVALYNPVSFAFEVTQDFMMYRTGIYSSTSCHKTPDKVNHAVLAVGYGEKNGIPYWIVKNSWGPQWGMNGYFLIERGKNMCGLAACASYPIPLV

[2] = solubility in fasted state stimulated intestinal fluid (pH6.8); format: ADME; conditions: rat, fasted state simulated intestinal fluid, pH 6.8
[3] = Half-life after intravenous administration of […] mg/kg in rats was determined; format: ADME, organism-based; conditions: rat, in vivo, 2.5 mg/kg
[4] = Steady state volume of distribution after intravenous administration of 2.5 mg/kg in rats was determined; format: ADME, organism-based; parameters: dose 2.5 mg/kg, route intravenous; conditions: rat, in vivo, read-out: Vss
[5] = Oral bioavailability in rat (dose 5 mg/kg p.o.); conditions: in vivo
[6] = Equilibrium solubility in fasted state-simulated intestinal fluid at pH 6.8 was determined; format: ADME

Sequence of Cathepsin S (P25774 whole entry): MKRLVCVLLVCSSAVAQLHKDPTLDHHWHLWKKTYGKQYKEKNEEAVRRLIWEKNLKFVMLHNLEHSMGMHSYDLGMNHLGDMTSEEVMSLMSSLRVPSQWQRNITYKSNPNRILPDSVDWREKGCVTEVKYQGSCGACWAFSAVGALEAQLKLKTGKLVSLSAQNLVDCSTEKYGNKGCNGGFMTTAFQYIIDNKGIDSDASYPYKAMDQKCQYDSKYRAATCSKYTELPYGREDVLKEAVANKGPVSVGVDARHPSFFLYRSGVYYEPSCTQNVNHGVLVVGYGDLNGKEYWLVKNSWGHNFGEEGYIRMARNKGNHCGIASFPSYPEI
Sequence of Procathepsin L (P07711 whole entry): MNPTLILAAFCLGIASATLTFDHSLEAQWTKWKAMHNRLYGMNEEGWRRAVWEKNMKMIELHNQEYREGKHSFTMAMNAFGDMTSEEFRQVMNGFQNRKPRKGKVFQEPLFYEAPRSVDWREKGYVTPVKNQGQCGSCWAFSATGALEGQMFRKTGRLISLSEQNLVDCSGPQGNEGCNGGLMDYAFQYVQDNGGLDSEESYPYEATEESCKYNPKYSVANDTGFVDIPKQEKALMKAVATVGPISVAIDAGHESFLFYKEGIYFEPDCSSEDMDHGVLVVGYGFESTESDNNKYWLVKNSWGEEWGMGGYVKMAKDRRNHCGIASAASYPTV

Structure (SMILES)	clearance [1] [mL/min/kg]	pIC50 (Cathepsin K)	pIC50 (Cathepsin B)	pIC50 (Procathepsin L)	pIC50 (Cathepsin L2)	pIC50 (Cathepsin S)	pIC50 (Pro-cathepsin H)	solubility [2] [µg/mL]	half-life [3] [min]	Vd [4] [L/kg]	bioavailability [5] [%]	solubility thermodynamic [6] [µg/mL]
CCCC[C@H](NC(=O)O[C@@H]1C(=O)OCC1(C)C)C(=O)C(=O)N[C@H](C)c1ccccc1	460	8.52	< 6.30	6.39	7.10	7.89	< 6.30	240 (≈ 573 µM)	11	3.4	0	
CCCC[C@H](NC(=O)OC1C2(C)CCC(C2)C1(C)C)C(=O)C(=O)N[C@H](C)c1ccccc1 (some centres undefined)		8.24	4.92	5.77	6.74	7.52	< 4.89					
CCCC[C@H](NC(=O)O[C@@H]1C(=O)NCC1(C)C)C(=O)C(=O)N[C@H](C)c1ccccc1	48	8.60	5.85	6.82	7.54	7.74	< 4.89		62	1.3	25	800 (≈ 1920 µM)
CCCC[C@H](NC(=O)OC1CC2CCC1C2)C(=O)C(=O)N[C@H](C)c1ccccc1 (some centres undefined)		7.59	< 4.89	6.00	6.72	7.72	< 4.89					
CCCC[C@H](NC(=O)O[C@H]1CCCc2ccccc21)C(=O)C(=O)N[C@H](C)c1ccccc1		7.49	< 5.70	6.18	6.47	7.10	< 5.70					

Further compounds by rising pIC50 (Cathepsin K), results first:

clearance [1] [mL/min/kg]	pIC50 (Cathepsin K)	pIC50 (Cathepsin B)	pIC50 (Procathepsin L)	pIC50 (Cathepsin L2)	pIC50 (Cathepsin S)	pIC50 (Pro-cathepsin H)	solubility [2] [µg/mL]	half-life [3] [min]	Vd [4] [L/kg]	bioavailability [5] [%]	solubility thermodynamic [6] [µg/mL]	Structure (SMILES)
	6.46	< 4.89	5.36	5.55	7.20	< 4.89						CCCC[C@H](NC(=O)O[C@@H]1C[C@H](C)C[C@H](C)C1)C(=O)C(=O)N[C@H](C)c1ccccc1
	6.72	< 4.89	5.17	5.70	6.54	< 4.89						CCCC[C@H](NC(=O)OC1C[C@H](C)C[C@@H](C)C1)C(=O)C(=O)N[C@H](C)c1ccccc1 (some centres undefined)
	7.00	< 4.89	6.34	6.54	6.55	< 4.89						CCCC[C@H](NC(=O)O[C@H]1CCc2ccccc21)C(=O)C(=O)N[C@H](C)c1ccccc1
	8.14	< 5.30	5.59	6.41	7.80	< 5.30						CCCC[C@H](NC(=O)OC1C2CC3CC(C2)CC1C3)C(=O)C(=O)N[C@H](C)c1ccccc1 (some centres undefined)
